20 compounds from US20090264427A1, “3-Cyanoquinolines, Methods for Preparation and Use as Insulin-like Growth Factor Inhibitors” (Wyeth, priority 2008, published 2009) can be followed below.

Test system in the first data set: not given
Test: not given
Conditions: not given
`CCN1CCN(CCCOc2cc3ncc(C#N)c(Nc4ccc(Sc5nc(C)c(C)n5CC)c(Cl)c4)c3cc2OC)CC1` [Example 17, 4-({3-Chloro-4-[(1-ethyl-4,5-dimethyl-1H-imidazol-2-yl)sulfanyl]phenyl}amino)-7-[3-(4-ethyl-1-piperazinyl)propoxy]-6-methoxy-3-quinolinecarbonitrile]: the melting point was 229 to 230 °C.

The target in another data set is T1, IGF1-receptor kinase (IGFR) (Homo sapiens, UniProt P08069).
T1 construct: GST (with thrombin cleavage site) (N); made in house; host or cells: ExpresSF insect cells
T1 sequence (P08069 31-1367): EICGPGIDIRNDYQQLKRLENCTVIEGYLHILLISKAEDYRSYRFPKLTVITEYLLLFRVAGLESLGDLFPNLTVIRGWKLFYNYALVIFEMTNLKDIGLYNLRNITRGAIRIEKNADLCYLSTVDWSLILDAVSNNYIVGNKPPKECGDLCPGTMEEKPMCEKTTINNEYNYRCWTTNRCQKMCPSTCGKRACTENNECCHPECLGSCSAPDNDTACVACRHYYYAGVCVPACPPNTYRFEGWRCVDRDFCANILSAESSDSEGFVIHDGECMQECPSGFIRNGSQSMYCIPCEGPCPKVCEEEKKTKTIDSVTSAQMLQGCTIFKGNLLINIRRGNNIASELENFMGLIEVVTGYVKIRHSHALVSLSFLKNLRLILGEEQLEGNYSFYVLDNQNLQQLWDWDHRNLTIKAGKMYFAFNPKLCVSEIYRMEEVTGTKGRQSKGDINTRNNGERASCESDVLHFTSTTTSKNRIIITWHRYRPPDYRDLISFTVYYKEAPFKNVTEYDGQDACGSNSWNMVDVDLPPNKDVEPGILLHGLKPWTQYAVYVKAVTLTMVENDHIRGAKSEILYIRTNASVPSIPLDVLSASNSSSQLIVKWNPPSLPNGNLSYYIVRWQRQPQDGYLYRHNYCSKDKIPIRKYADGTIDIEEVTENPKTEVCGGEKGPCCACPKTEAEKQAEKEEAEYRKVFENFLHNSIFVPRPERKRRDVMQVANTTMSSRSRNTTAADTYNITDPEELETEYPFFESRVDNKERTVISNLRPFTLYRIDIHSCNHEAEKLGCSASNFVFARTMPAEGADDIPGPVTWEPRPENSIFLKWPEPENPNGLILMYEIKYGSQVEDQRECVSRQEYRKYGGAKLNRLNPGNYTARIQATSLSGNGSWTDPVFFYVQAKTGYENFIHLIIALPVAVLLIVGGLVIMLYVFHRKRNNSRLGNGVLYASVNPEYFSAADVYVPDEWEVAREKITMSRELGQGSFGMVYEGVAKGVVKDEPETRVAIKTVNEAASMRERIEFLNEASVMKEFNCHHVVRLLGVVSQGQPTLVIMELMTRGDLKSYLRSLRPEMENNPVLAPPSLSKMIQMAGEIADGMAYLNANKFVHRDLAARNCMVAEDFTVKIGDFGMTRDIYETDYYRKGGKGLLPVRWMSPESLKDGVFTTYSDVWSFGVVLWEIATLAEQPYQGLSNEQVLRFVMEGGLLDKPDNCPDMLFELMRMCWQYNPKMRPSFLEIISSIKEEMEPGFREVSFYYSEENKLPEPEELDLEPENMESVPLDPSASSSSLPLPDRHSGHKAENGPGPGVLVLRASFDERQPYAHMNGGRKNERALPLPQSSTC
Briefly: 96-well FRET (Lance) tyrosine kinase assay, IGFR. The class given is biochemical. The settings on record: ATP 100 micromolar final, 1 hour reaction, enzyme form (GST-, Bis- or Tris-IGFR) not given.
Consider `COc1cc2c(Nc3ccc(Sc4nc5cc(C)ccc5n4C)c(Cl)c3)c(C#N)cnc2cc1NCCCN(C)C` [Example 3, 4-({3-chloro-4-[(1,5-dimethyl-1H-benzimidazol-2-yl)thio]phenyl}amino)-7-{[3-(dimethylamino)propyl]amino}-6-methoxyquinoline-3-carbonitrile], for which the IC50 came to 291 nM.

Compound `COc1cc2c(Nc3ccc(Sc4nc(C)c(C)n4C)c(Br)c3)c(C#N)cnc2cc1NCCCN(C)C` [Example 5, 4-({3-bromo-4-[(1,4,5-trimethyl-1H-imidazol-2-yl)thio]phenyl}amino)-7-{[3-(dimethylamino)-propyl]amino}-6-methoxy-quinoline-3-carbonitrile] gave an IC50 of 30 nM. Same read-out and setting: for `COc1cc2c(Nc3ccc(Sc4nc(C)c(C)n4C)cc3)c(C#N)cnc2cc1NCCCN(C)C` [Example 6, 7-{[3-(dimethyl-amino)propyl]-amino}-6-methoxy-4-({4-[(1,4,5-trimethyl-1H imidazol-2-yl)thio]phenyl}amino)-quinoline-3-carbonitrile] the value was 394 nM. `CCn1c(Sc2ccc(Nc3c(C#N)cnc4cc(NCCCc5ccccc5)c(OC)cc34)cc2Cl)nc(C)c1C` [Example 7, 4-({3-Chloro-4-[(1-ethyl-4,5-dimethyl-1H-imidazol-2-yl)thio]phenyl}amino)-6-methoxy-7-[(3-phenylpropyl)amino]quinoline-3-carbonitrile] yielded an IC50 of 17200 nM.

Take `CCn1c(Sc2ccc(Nc3c(C#N)cnc4cc(NCCCN5CCOCC5)c(OC)cc34)cc2Cl)nc(C)c1C` [Example 8, 4-({3-chloro-4-[(1-ethyl-4,5-dimethyl-1H-imidazol-2-yl)thio]phenyl}-amino)-6-methoxy-7-[(3-morpholin-4-ylpropyl)amino]-quinoline-3-carbonitrile]: the midpoint of inhibition, the IC50, lay at 13 nM. Same read-out and setting: with `CCn1c(Sc2ccc(Nc3c(C#N)cnc4cc(NCCCN(CCO)CCO)c(OC)cc34)cc2Cl)nc(C)c1C` [Example 9, 7-({3-[bis(2-hydroxyethyl)amino]propyl}amino)-4-({3-chloro-4-[(1-ethyl-4,5-dimethyl-1H-imidazol-2-yl)thio]phenyl}amino)-6-methoxyquinoline-3-carbonitrile] the figure was 21 nM; with `CCn1c(Sc2ccc(Nc3c(C#N)cnc4cc(OCCCNS(=O)(=O)c5ccccc5)c(OC)cc34)cc2Cl)nc(C)c1C` [Example 10, N-(3-{4-[3-chloro-4-(1-ethyl-4,5-dimethyl-1H-imidazol-2-ylsulfanyl)-phenylamino]-3-cyano-6-methoxy-quinolin-7-yloxy}-propyl)-benzenesulfonamide], 3880 nM; with `CCn1c(Sc2ccc(Nc3c(C#N)cnc4cc(OCCCN(CCO)C(C)(C)C)c(OC)cc34)cc2Cl)nc(C)c1C` [Example 11, 7-{3-[tert-butyl(2-hydroxy-ethyl)amino]propoxy}-4-({3-chloro-4-[(1-ethyl-4,5-dimethyl-1H-imidazol-2-yl)thio]phenyl}amino)-6-methoxyquinoline-3-carbonitrile], 24 nM. Still for that read-out and setting: for `CCOC(=O)N1CCN(CCCOc2cc3ncc(C#N)c(Nc4ccc(Sc5nc(C)c(C)n5CC)c(Cl)c4)c3cc2OC)CC1` [Example 13, ethyl 4-(3-{[4-({3-chloro-4-[(1-ethyl-4,5-dimethyl-1H-imidazol-2-yl)thio]phenyl}amino)-3-cyano-6-methoxyquinolin-7-yl]oxy}propyl)-piperazine-1-carboxylate] the value was 41 nM; for `CCC1CCCCN1CCCOc1cc2ncc(C#N)c(Nc3ccc(Sc4nc(C)c(C)n4CC)c(Cl)c3)c2cc1OC` (stereo not drawn) [Example 14, 4-({3-chloro-4-[(1-ethyl-4,5-dimethyl-1H-imidazol-2-yl)thio]phenyl}amino)-7-[3-(2-ethylpiperidin-1-yl)propoxy]-6-methoxy-quinoline-3-carbonitrile], 27 nM; for `CCOC(=O)C1CCN(CCCOc2cc3ncc(C#N)c(Nc4ccc(Sc5nc(C)c(C)n5CC)c(Cl)c4)c3cc2OC)CC1` [Example 15, ethyl 1-(3-{[4-({3-chloro-4-[(1-ethyl-4,5-dimethyl-1H-imidazol-2-yl)thio]phenyl}amino)-3-cyano-6-methoxyquinolin-7-yl]oxy}propyl)-piperidine-4-carboxylate], 142 nM.

`CCn1c(Sc2ccc(Nc3c(C#N)cnc4cc(OCCCNS(C)(=O)=O)c(OC)cc34)cc2Cl)nc(C)c1C` [Example 16, N-(3-{[4-({3-chloro-4-[(1-ethyl-4,5-dimethyl-1H-imidazol-2-yl)thio]phenyl]amino)-3-cyano-6-methoxyquinolin-7-yl]oxy}propyl)-methanesulfonamide] came in with an IC50 of 35 nM. The same measure, in the same setting: with `CCN1CCN(CCCOc2cc3ncc(C#N)c(Nc4ccc(Sc5nc(C)c(C)n5CC)c(Cl)c4)c3cc2OC)CC1` [Example 17, 4-({3-Chloro-4-[(1-ethyl-4,5-dimethyl-1H-imidazol-2-yl)sulfanyl]phenyl}amino)-7-[3-(4-ethyl-1-piperazinyl)propoxy]-6-methoxy-3-quinolinecarbonitrile] the figure was 5 nM; with `CCn1c(Sc2ccc(Nc3c(C#N)cnc4cc(OCCCN5CCN(CCO)CC5)c(OC)cc34)cc2Cl)nc(C)c1C` [Example 18, 4-({3-chloro-4-[(1-ethyl-4,5-dimethyl-1H-imidazol-2-yl)thio]-phenyl}amino)-7-{3-[4-(2-hydroxyethyl)piperazin-1-yl]propoxy}-6-methoxy-quinoline-3-carbonitrile], 11 nM. On the same count and under the same terms, with `CCn1c(Sc2ccc(Nc3c(C#N)cnc4cc(OCCCN5CCC(O)C5)c(OC)cc34)cc2Cl)nc(C)c1C` (stereo not drawn) [Example 20, 4-({3-chloro-4-[(1-ethyl-4,5-dimethyl-1H-imidazol-2-yl)thio]phenyl}amino)-7-[3-(3-hydroxypyrrolidin-1-yl)propoxy]-6-methoxyquinoline-3-carbonitrile] the figure was 20 nM.

Compound `CCOC(=O)CN1CCN(CCCOc2cc3ncc(C#N)c(Nc4ccc(Sc5nc(C)c(C)n5CC)c(Cl)c4)c3cc2OC)CC1` [Example 22, ethyl [4-(3-{[4-({3-chloro-4-[(1-ethyl-4,5-dimethyl-1H-imidazol-2-yl)thio]phenyl}amino)-3-cyano-6-methoxyquinolin-7-yl]oxy}propyl)piperazin-1-yl]acetate] returned an IC50 of 17 nM.

Compound `CCn1c(Sc2ccc(Nc3c(C#N)cnc4cc(OCCCN5CCOCC5)c(OC)cc34)cc2Cl)nc(C)c1C` [Example 24, 4-({3-chloro-4-[(1-ethyl-4,5-dimethyl-1H-imidazol-2-yl)thio]phenyl}amino)-6-methoxy-7-(3-morpholin-4-ylpropoxy)qquinoline-3-carbonitrile] showed an IC50 of 22 nM. The same measure, in the same setting: with `CCn1c(Sc2ccc(Nc3c(C#N)cnc4cc(OCCCN5CCC(O)CC5)c(OC)cc34)cc2Cl)nc(C)c1C` [Example 26, 4-({3-chloro-4-[(1-ethyl-4,5-dimethyl-1H-imidazol-2-yl)thio]phenyl}amino)-7-[3-(4-hydroxypiperidin-1-yl)propoxy]-6-methoxyquinoline-3-carbonitrile] the figure was 47 nM; with `CCn1c(Sc2ccc(Nc3c(C#N)cnc4cc(OCCCN5CCN(C(C)=O)CC5)c(OC)cc34)cc2Cl)nc(C)c1C` [Example 27, 7-[3-(4-acetylpiperazin-1-yl)propoxy]-4-({3-chloro-4-[(1-ethyl-4,5-dimethyl-1H imidazol-2-yl)thio]phenyl}amino)-6-methoxyquinoline-3-carbonitrile], 16 nM; with `CCn1c(Sc2ccc(Nc3c(C#N)cnc4cc(NCCCN5CCN(C)CC5)c(OC)cc34)cc2Cl)nc(C)c1C` [Example 28, 4-[3-Chloro-4-(1-ethyl-4,5-dimethyl-1H-imidazol-2-ylsulfanyl)-phenylamino]-6-methoxy-7-[3-(4-methyl-piperazin-1-yl)-propylamino]-quinoline-3-carbonitrile], 2 nM.
